In general, IC50 refers to the midpoint of a concentration-inhibition curve.

SMILES strings stand for the structures.

Data on 8 compounds can be found in US20240300980A1, “HETEROCYCLIC COMPOUNDS AS KRAS INHIBITOR, AND PREPARATION THEREFOR AND USE THEREOF IN TREATMENT” (SHANGHAI KECHOW PHARMA, INC., priority 2021, published 2024).

The test has as its system AGS cells (KRAS^G12D). Description: Detection of cell proliferation in vitro by MTT/MTS method (cell activity experiment). It is filed as cell-based. Particulars: Homo sapiens, AGS, 72 h, AGS cells; MTT/MTS; 3 days of drug treatment; read-out: AGS IC50. In a few lines:
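KRAS G12D AGS cells seeded at 1000 per well, compound added 24 h later, 0.5% final DMSO. Viability read after 3 days of treatment by MTT (solubilised in DMSO) or MTS, 4 h, absorbance 490 nm. IC50 from dose–response curves versus DMSO control.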
For orientation: Tetrazolium assays rely on reduction of a dye to a coloured formazan, in cell work by metabolically active cells.
As to `COC1CCCc2cc(O)cc(-c3ncc4c(N5C[C@H]6CC[C@@H](C5)N6)nc(OC[C@@]56CCCN5C[C@H](F)C6)nc4c3F)c21` (stereo partly drawn) [Example 270, 4-(4-((1R,5S)-3,8-diazabicyclo[3.2.1]octan-3-yl)-8-fluoro-2-(((2R,7aS)-2-fluorotetrahydro-1H-pyrrolizin-7a(5H)-yl)methoxy)pyrido[4,3-d]pyrimidin-7-yl)-5-methoxy-5,6,7,8-tetrahydronaphthalen-2-ol], the half-maximal inhibitory concentration (IC50) worked out at 20 nM.

For the compound `Oc1cc(-c2ncc3c(N4C[C@H]5CC[C@@H](C4)N5)nc(OC[C@@]45CCCN4C[C@H](F)C5)nc3c2F)c2c(c1)C1CC1C2` (stereo partly drawn) [Example 245, 5-(4-((1R,5S)-3,8-diazabicyclo[3.2.1]octan-3-yl)-8-fluoro-2-(((2R,7aS)-2-fluorotetrahydro-1H-pyrrolizin-7a(5H)-yl)methoxy)pyrido[4,3-d]pyrimidin-7-yl)-1,1a,6,6a-tetrahydrocyclopropa[a]inden-3-ol], the IC50 came to 25 nM.

Take `CC1CCCc2cc(O)cc(-c3ccc4c(NCC5(N(C)C)CCC5)nc(OC[C@@]56CCCN5C[C@H](F)C6)nc4c3F)c21` (stereo partly drawn) [Example 427, 4-(4-(((1-(dimethylamino)cyclobutyl)methyl)amino)-8-fluoro-2-(((2R,7aS)-2-fluorotetrahydro-1H-pyrrolizin-7a(5H)-yl)methoxy)quinazolin-7-yl)-5-methyl-5,6,7,8-tetrahydronaphthalen-2-ol]: the concentration for half-maximal inhibition (IC50) is 55 nM.

`Oc1cc2c(c(-c3ncc4c(N5C[C@H]6CC[C@@H](C5)N6)nc(OC[C@@]56CCCN5C[C@H](F)C6)nc4c3F)c1)C(CC(F)F)CC2` (stereo partly drawn) [Example 258, 7-(4-((1R,5S)-3,8-diazabicyclo[3.2.1]octan-3-yl)-8-fluoro-2-(((2R,7aS)-2-fluorotetrahydro-1H-pyrrolizin-7a(5H)-yl)methoxy)pyrido[4,3-d]pyrimidin-7-yl)-1-(2,2-difluoroethyl)-2,3-dihydro-1H-inden-5-ol]: the IC50 is > 10000 nM.

Consider `C#Cc1cccc2cc(O)cc(-c3ccc4c(N5C[C@H]6CC[C@@H](C5)N6)nc(OCC5(CN6CCCC6)CC5)nc4c3F)c12` [Example 103, 4-(4-((1R,5S)-3,8-diazabicyclo[3.2.1]octan-3-yl)-8-fluoro-2-((1-(pyrrolidin-1-ylmethyl)cyclopropyl)methoxy)quinazolin-7-yl)-5-ethynylnaphthalen-2-ol], for which the half-maximal inhibitory concentration (IC50) came to 29 nM.

In the case of `C=C1CCCc2cc(O)cc(-c3ncc4c(N5C[C@H]6CC[C@@H](C5)N6)nc(OC[C@@]56CCCN5C[C@H](F)C6)nc4c3F)c21` [Example 253, 4-(4-((1R,5S)-3,8-diazabicyclo[3.2.1]octan-3-yl)-8-fluoro-2-(((2R,7aS)-2-fluorotetrahydro-1H-pyrrolizin-7a(5H)-yl)methoxy)pyrido[4,3-d]pyrimidin-7-yl)-5-methylene-5,6,7,8-tetrahydronaphthalen-2-ol], the half-inhibitory concentration (IC50) amounted to 42 nM.

On to `Oc1cc(-c2ncc3c(N4CC5CCC(C4)C5F)nc(OC[C@@]45CCCN4C[C@H](F)C5)nc3c2F)c2c(F)c(F)ccc2c1` (stereo partly drawn) [Example 37, 5,6-difluoro-4-(8-fluoro-4-((1R,5S,8R)-8-fluoro-3-azabicyclo[3.2.1]octan-3-yl)-2-(((2R,7aS)-2-fluorotetrahydro-1H-pyrrolizin-7a(5H)-yl)methoxy)pyrido[4,3-d]pyrimidin-7-yl) naphthalen-2-ol], for which the IC50 was > 2500 nM.

`Oc1cc2c(c(-c3ccc4c(N5C[C@H]6CC[C@@H](C5)N6)nc(OC[C@@]56CCCN5C[C@H](F)C6)nc4c3F)c1)C=CCC2` [Example 305, 4-(4-((1R,5S)-3,8-diazabicyclo[3.2.1]octan-3-yl)-8-fluoro-2-(((2R,7aS)-2-fluorotetrahydro-1H-pyrrolizin-7a(5H)-yl)methoxy)quinazolin-7-yl)-7,8-dihydronaphthalen-2-ol]: the IC50 was found to be 102 nM.
